Measurements as given in paper PMC8290497, “Taxifolin, an Inhibitor of Sortase A, Interferes With the Adhesion of Methicillin-Resistant Staphylococcal aureus” (Frontiers in Microbiology, 2021).
≈ marks a conversion by molar mass, not a printed value.

What was measured:
[1] = target: T1, WT-SrtA (Staphylococcus aureus, UniProt Q2FV99); assay: Fluorescence quenching assay, WT-SrtA; format: binding
T1 construct: 6xHis; made in house; host or cells: E. coli BL21 (DE3), plasmid pET28a-SrtA
Source text: (§1) Molecular modeling studies highlight the benefits of performing site-directed mutagenesis studies. Therefore, fluorescence quenching experiments were utilized to determine the binding affinity of Tax with SrtA and SrtA mutants (D170A, Q172A).

[2] = target: T2, SrtA (Staphylococcus aureus, UniProt Q2FV99); assay: Reversibility of SrtA inhibition (10 × IC50, dilution, FRET assay); format: biochemical; settings: SrtA treated with 10-fold IC50 of Tax then diluted; compared with control group (DMSO)
T2 construct: 6xHis; made in house; host or cells: E. coli BL21 (DE3), plasmid pET28a-SrtA
Source text: (§2) To identify novel inhibitors of SrtA, an in-house library containing 420 natural compounds was screened, using a FRET assay. […] To further clarify the interacting way of SrtA and Tax, recombinant SrtA was reacted with Tax at a concentration of 10-fold IC50. A total of 85.80 ± 0.67% of SrtA activity was subsequently recovered, compared with the control group (DMSO) (Figure 1C).
FIGURE 1 Inhibition of SrtA transpeptidation. (A) Chemical structure of Tax. (B) Tax inhibits SrtA cleavage of a fluorogenic peptide substrate (Abz-LPATG-Dnp-NH2) in a dose-dependent manner in vitro. Each reaction condition was assayed in triplicate from which the IC50 was determined. (C) Recombinant SrtA was treated with 10 × IC50 of Tax and then diluted, after which transpeptidation activity was measured using a FRET assay. Untreated SrtA (Control) represented 100% activity.

[3] = system: adhesion of S. aureus USA300 to fibrinogen; assay: Fibrinogen binding assay (crystal violet); format: cell-based; settings: Staphylococcus aureus, USA300, read-out: inhibition rate of adhesion of bacteria to fibrinogen
[4] = system: S. aureus USA300; assay: Broth microdilution susceptibility assay (MIC); format: cell-based; settings: Staphylococcus aureus, S. aureus USA 300
Experimental: A broth microdilution assay was performed to determine the minimum inhibitory concentration (MIC) of Tax for S. aureus USA300, as described elsewhere ([Sader et al., 2013]; [Delgado-Valverde et al., 2017]). A growth curve was further evaluated by adding various concentrations of Tax (0–200 μM) to a bacterial culture, then incubating until an OD600 of 0.3 had been reached. S. aureus USA300 and ΔsrtA were used as controls. The OD600 value was recorded for each sample at 1 h intervals for a total of 24 h. The growth rate between S. aureus treated with Tax and S. aureus USA300 was also calculated at each time point.

[5] = target: T3, S. aureus SrtA (Staphylococcus aureus, UniProt Q2FV99); assay: FRET assay of SrtA transpeptidation (cleavage of Abz-LPATG-Dap(Dnp)-NH2); format: biochemical
T3 construct: 6xHis; made in house; host or cells: E. coli BL21 (DE3), plasmid pET28a-SrtA
Experimental: Fluorescence resonant energy transfer (FRET) was used to determine the effect of Tax on SrtA, as described previously ([Kruger et al., 2002]). Briefly, 4 μM purified recombinant SrtA was combined with various concentrations of Tax then added to assay buffer consisting of 50 mM Tris-HCl, 5 mM CaCl2, 150 mM NaCl, at pH 7.5, to a final volume of 200 μL. Following incubation of the mixture at 37°C for 1 h, substrate peptide was added to a final concentration of 10 μM and incubated for an additional 30 min. Fluorescence intensity was measured at excitation and emission wavelengths of 309 and 420 nm, respectively.
as §2
FIGURE 1 Inhibition of SrtA transpeptidation. (A) Chemical structure of Tax. […] Each reaction condition was assayed in triplicate from which the IC50 was determined. (C) Recombinant SrtA was treated with 10 × IC50 of Tax and then diluted, after which transpeptidation activity was measured using a FRET assay. […]

[6] = system: S. aureus USA300 pneumonia in C57BL/6J mice; assay: Murine model of MRSA-induced pneumonia; format: in vivo, mouse
Experimental: To investigate the therapeutic capability of Tax to treat acute pneumonia infection caused by S. aureus USA300, 6- to 8-week-old female C57BL/6J mice were infected intranasally with 2 × 10^8 CFU of S. aureus USA300, then held upright for 30 s to ensure each animal inhaled the bacteria into their lungs. Two h post-infection, the mice were subcutaneously injected with Tax (100 mg/kg). Similarly, mice were challenged with ΔsrtA and sterile PBS containing 0.5% DMSO (control group) as controls. To assess survival, the mice were checked every 12 h for 96 h, and the percentage that had survived was recorded.
For bacterial counts in lung tissue and histopathological examination, mice were infected intranasally with 30 μL (1 × 10^8 CFUs) of S. aureus USA300. Tax (100 mg/kg) was then injected subcutaneously every 12 h after inoculation. The bacterial load in the lungs was determined after the mice in each group were sacrificed 48 h post-infection. The left lung from each animal was removed aseptically and processed to count the bacterial CFUs. The right lung of each mouse was aseptically removed and analyzed by conventional hematoxylin and eosin (H&E) staining using an optical microscope. The ratio of wet to dry lung tissue weight (W/D ratio) was recorded in each case. Wet lung weight was measured 1 min after surface moisture had been removed. Dry lung weight was determined after dehydration at 80°C. The W/D ratio is used to reveal the degree of tissue edema ([Xia et al., 2016]).
FIGURE 6 Effect of treatment with Tax on S. aureus-induced pneumonia in mice. (A) Effect of Tax on the survival of mice (n = 10 per group) infected with a lethal dose of S. aureus. (B) Effect of Tax (100 mg/kg) on bacterial load in the lungs of mice (n = 6). (C) Gross pathological changes and histopathology of mouse lungs treated with Tax (100 mg/kg/d) or untreated. Scale bar: 50 μm. (D) Lung wet-to-dry weight ratio (W/D). Each value represents mean ± SD (n = 5 per group). **P < 0.01, ***P < 0.001; Mann-Whitney test, two-tailed. Horizontal bars represent mean values. Animal data were obtained from two separate experiments.

[7] = target: T4, D170A-SrtA mutant (Staphylococcus aureus, UniProt Q2FV99, D170A); assay: Fluorescence quenching assay, D170A-SrtA; format: binding
T4 construct: 6xHis; made in house; host or cells: E. coli BL21 (DE3), mutated pET28a-SrtA
Experimental: Site-directed mutagenesis for D170A-SrtA and Q172A-SrtA was performed based on plasmid pET28a-SrtA using a multi-site mutagenesis kit (Transgen, Beijing, China) and the desired mutation was verified via DNA sequencing by Sangon Biotech (Shanghai, China). Subsequently, recombinant SrtA and the SrtA mutant proteins (D170A and Q172A) were expressed and purified in accordance with a previously published procedure ([Zhulenkovs et al., 2014]). Briefly, bacteria were cultured until an OD600 value of 0.8 was achieved, after which 0.5 mM isopropyl-β-D-thiogalactopyranoside (IPTG) was added to induce recombination of SrtA at 16°C overnight. Because the recombinant protein had 6 × His tags, it was purified using a nickel-nitrilotriacetic acid (Ni-NTA) purification system. Imidazole (10 mM) was used to wash away excess protein, while 400 mM imidazole was employed to elute the target protein.
as §1

O=C1c2c(O)cc(O)cc2OC(c2ccc(O)c(O)c2)C1O (stereo not shown) [Tax, taxifolin]
Kd [1]: 15.6 µM | SrtA activity recovered [2]: 85.80 ± 0.67% | inhibition at 200 µM [3]: 35.1 ± 0.49% | MIC [4]: 512 µg/mL (≈ 1680 µM) | IC50 [5]: 24.5 ± 0.42 µM | bacterial load in the lungs ([6]; Tax 100 mg/kg subcutaneous every 12 h, 48 h post-infection): 6.73 ± 0.69 lg CFU/g | lung histopathology ([6]; Tax 100 mg/kg, infected mice, H&E staining): significantly reduced inflammation | lung wet-to-dry weight ratio (W/D) ([6]; Tax 100 mg/kg, infected mice, P < 0.001): 5.35 ± 0.34 | survival rate of mice ([6]; lethal dose S. aureus USA300 intranasal, Tax 100 mg/kg subcutaneous, 96 h, p < 0.01): 50% | Kd [7]: 37.2 µM
